The values below come from publication PMC4081582, “Enhancing Effect of Borneol and Muscone on Geniposide Transport across the Human Nasal Epithelial Cell Monolayer” (PLoS ONE, 2014).

For data set [1] the following is noted: mice, intravenous administration; cited from earlier work.
In a further data set the test system is HNECs. The data set is described as follows: MTT cytotoxicity assay on HNECs. The settings on record: 24 h. The class given is cell-based, human. Here is the method:
The cytotoxicity of the main active ingredients in “Xing Nao Jing” on HNECs was evaluated by the methyl thiazolyl tetrazolium (MTT) colorimetric assay. Briefly, 100 µL of 5×10^4 cells·mL^−1 was seeded into 96-well plates. After 24 h, the medium was removed and replaced with a fresh medium containing increasing concentrations of geniposide, borneol, muscone and their combinations for another 24 h. After that, 15 µL of a 5 mg·mL^−1 MTT solution in 100 µL BEGM was added to each well. After 4 h of incubation, the supernatant was discarded and formazan crystals were dissolved in DMSO followed by vigorous mixing. Control wells were incubated with BEGM only and were treated similarly as above. The optical density was determined at 490 nm with a Multiskan Go microplate reader (Thermo, USA). The percent viability of the cells was determined from the absorbance values considering that of the control as 100%.
The percentage of cell toxicity in the MTT assay was calculated by the following equation (1): [drawing 1]
On the technique in general: Formazan colour is commonly taken as a measure of viable cells.

As to `COC(=O)C1=CO[C@@H](O[C@@H]2O[C@H](CO)[C@@H](O)[C@H](O)[C@H]2O)[C@@H]2C(CO)=CC[C@H]12` [geniposide, Geniposide], the brain/blood drug ratio entry in data set [1] is recorded as “about 10%”. The “concentration range with no cell cytotoxicity” value in the data set on HNECs was 0 to 400000 ng/mL.
